Assay results from US10040781B2, “Tank-binding kinase inhibitor compounds” (Gilead Sciences, Inc., priority 2014, dated 2018).

Key:
IKKε = IKKε (Homo sapiens (Human), UniProt Q14164); test: IKKε TR-FRET enzymatic assay; type: biochemical; conditions: TR-FRET, 2×Km ATP; geometric mean of minimum four determinations; read-out: IKKe IC50
hJAK2 = hJAK2 (Homo sapiens (Human), UniProt O60674); test: hJAK2 LANCE TR-FRET enzymatic assay; type: biochemical; conditions: read-out: JAK2 IC50
TBK1 = TBK1 (Homo sapiens (Human), UniProt Q9UHD2); test: TBK1 TR-FRET enzymatic assay;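 also: phosphorylation of a biotinylated Ser/Thr peptide by purified full-length recombinant TBK1, read by TR-FRET after 240 min at 25 °C, IC50 is the geometric mean of at least four runs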
Sequence of TBK1 (Q9UHD2 whole entry): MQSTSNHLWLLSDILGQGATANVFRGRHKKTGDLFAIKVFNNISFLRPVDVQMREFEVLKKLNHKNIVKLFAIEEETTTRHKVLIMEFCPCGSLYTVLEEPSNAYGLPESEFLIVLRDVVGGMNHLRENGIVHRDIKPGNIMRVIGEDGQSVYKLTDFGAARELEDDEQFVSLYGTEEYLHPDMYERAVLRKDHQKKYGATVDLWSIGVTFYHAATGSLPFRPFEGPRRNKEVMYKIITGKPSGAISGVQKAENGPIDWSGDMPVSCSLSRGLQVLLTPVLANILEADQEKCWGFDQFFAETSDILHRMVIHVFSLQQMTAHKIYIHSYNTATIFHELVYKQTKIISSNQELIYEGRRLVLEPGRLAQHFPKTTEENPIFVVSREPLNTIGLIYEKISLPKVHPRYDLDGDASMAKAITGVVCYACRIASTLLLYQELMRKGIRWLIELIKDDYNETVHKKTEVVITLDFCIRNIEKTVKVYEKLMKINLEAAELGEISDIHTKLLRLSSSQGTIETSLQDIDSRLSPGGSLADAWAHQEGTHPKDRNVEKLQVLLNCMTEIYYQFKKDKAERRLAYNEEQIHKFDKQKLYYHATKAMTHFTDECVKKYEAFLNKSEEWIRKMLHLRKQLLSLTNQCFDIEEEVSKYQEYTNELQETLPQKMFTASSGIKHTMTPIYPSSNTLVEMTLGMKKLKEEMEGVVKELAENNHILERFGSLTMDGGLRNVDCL

Sequence of IKKε (Q14164 whole entry): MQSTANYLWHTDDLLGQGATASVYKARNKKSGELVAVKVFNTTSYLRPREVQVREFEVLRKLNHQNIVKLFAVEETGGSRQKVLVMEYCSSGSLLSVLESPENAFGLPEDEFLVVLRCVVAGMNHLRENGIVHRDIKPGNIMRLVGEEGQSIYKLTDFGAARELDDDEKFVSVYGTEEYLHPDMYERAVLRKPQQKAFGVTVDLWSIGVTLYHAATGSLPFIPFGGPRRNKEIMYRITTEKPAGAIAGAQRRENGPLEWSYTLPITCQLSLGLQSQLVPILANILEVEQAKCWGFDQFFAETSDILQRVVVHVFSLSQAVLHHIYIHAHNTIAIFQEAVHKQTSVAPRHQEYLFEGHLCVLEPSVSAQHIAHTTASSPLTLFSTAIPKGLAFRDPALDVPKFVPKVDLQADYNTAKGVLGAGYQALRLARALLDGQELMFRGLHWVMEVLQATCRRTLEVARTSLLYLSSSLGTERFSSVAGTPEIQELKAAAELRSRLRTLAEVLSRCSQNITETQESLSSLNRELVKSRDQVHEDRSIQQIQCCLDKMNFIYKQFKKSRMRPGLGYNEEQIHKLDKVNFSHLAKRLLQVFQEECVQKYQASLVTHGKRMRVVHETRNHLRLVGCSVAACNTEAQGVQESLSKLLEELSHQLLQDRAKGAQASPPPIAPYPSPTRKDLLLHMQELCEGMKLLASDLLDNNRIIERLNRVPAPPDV
Sequence of hJAK2 (O60674 whole entry): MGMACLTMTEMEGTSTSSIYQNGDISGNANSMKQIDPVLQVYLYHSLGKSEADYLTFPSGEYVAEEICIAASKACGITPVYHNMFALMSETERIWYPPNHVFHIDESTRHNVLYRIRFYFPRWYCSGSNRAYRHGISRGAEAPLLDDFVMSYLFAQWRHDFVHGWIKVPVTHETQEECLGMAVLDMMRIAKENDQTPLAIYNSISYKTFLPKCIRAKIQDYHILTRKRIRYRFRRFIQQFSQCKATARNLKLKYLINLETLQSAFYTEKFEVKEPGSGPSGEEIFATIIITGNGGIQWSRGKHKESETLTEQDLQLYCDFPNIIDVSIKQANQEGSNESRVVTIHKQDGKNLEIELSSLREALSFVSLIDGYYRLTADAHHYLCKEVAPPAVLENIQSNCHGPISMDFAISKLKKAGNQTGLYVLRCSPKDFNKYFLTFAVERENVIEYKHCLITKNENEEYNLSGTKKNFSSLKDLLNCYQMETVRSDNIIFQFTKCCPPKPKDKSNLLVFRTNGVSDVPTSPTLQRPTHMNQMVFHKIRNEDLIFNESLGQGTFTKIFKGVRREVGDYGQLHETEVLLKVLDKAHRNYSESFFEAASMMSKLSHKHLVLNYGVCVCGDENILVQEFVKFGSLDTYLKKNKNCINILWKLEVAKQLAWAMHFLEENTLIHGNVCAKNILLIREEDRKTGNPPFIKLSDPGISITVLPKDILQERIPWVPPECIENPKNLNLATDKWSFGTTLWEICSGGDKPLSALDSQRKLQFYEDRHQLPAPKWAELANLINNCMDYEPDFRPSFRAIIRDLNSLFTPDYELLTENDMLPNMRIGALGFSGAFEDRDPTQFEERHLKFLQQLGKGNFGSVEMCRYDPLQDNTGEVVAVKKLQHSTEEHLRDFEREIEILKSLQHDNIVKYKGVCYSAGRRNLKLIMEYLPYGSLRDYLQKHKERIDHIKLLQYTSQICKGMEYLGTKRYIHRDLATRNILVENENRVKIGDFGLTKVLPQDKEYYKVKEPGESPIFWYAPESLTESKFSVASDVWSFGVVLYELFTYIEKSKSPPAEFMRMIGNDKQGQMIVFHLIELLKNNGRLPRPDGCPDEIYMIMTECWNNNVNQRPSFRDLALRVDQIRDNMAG

SMILES	IC50 (IKKε) [nM]	IC50 (hJAK2) [nM]	IC50 (TBK1) [nM]
N#CCC(=O)Nc1ccc(-c2ncnc(Nc3ccc(N4CCN(C5COC5)CC4)cc3)n2)cc1C#N [Example 494, 2-cyano-N-(2-cyano-4-(4-((4-(4-(oxetan-3-yl)piperazin-1-yl)phenyl)amino)-1,3,5-triazin-2-yl)phenyl)acetamide]	29	12	19
CCC(=O)Nc1ccc(-c2ncnc(Nc3ccc(N4CCN(C5COC5)CC4)cc3)n2)cc1C#N [Example 495, N-(2-cyano-4-(4-((4-(4-(oxetan-3-yl)piperazin-1-yl)phenyl)amino)-1,3,5-triazin-2-yl)phenyl)propionamide]	119	109	40
N#Cc1cc(-c2ncnc(Nc3ccc(N4CCN(C5COC5)CC4)cc3)n2)ccc1NC(=O)CC(F)(F)F [Example 496, N-(2-cyano-4-(4-((4-(4-(oxetan-3-yl)piperazin-1-yl)phenyl)amino)-1,3,5-triazin-2-yl)phenyl)-3,3,3-trifluoropropanamide]	8	8	6
CCn1cc(Nc2ncnc(-c3ccc(O[C@H]4CCN(C(=O)CO)C[C@H]4F)c(C#N)c3)n2)nn1 [Example 502, 5-(4-((1-ethyl-1H-1,2,3-triazol-4-yl)amino)-1,3,5-triazin-2-yl)-2-(((3R,4S)-3-fluoro-1-(2-hydroxyacetyl)piperidin-4-yl)oxy)benzonitrile]	29	≥ 1000	28
CCn1ncc(Nc2ncnc(-c3ccc(O[C@H]4CCN(C(=O)CO)C[C@H]4F)c(C#N)c3)n2)n1 [Example 503, 5-(4-((2-ethyl-2H-1,2,3-triazol-4-yl)amino)-1,3,5-triazin-2-yl)-2-(((3R,4S)-3-fluoro-1-(2-hydroxyacetyl)piperidin-4-yl)oxy)benzonitrile]	20	≥ 1000	7
N#Cc1cc(-c2ncnc(Nc3ccc(N4CCN(C5COC5)CC4)cc3)n2)ccc1O[C@H]1CCN(C(=O)[C@@H]2CCCO2)C[C@H]1F [Example 504, 2-(((3R,4S)-3-fluoro-1-((S)-tetrahydrofuran-2-carbonyl)piperidin-4-yl)oxy)-5-(4-((4-(4-(oxetan-3-yl)piperazin-1-yl)phenyl)amino)-1,3,5-triazin-2-yl)benzonitrile]	5	≥ 1000	4
N#Cc1cc(-c2ncnc(Nc3ccc(N4CCN(C5COC5)CC4)cc3)n2)ccc1O[C@H]1CCN(C(=O)[C@H]2CCCO2)C[C@H]1F [Example 505, 2-(((3R,4S)-3-fluoro-1-((R)-tetrahydrofuran-2-carbonyl)piperidin-4-yl)oxy)-5-(4-((4-(4-(oxetan-3-yl)piperazin-1-yl)phenyl)amino)-1,3,5-triazin-2-yl)benzonitrile]	41	532	12
N#Cc1cc(-c2ncnc(Nc3cnn(CCO)c3)n2)ccc1O[C@H]1CCN(C(=O)CO)C[C@H]1F [Example 506, 2-(((3R,4S)-3-fluoro-1-(2-hydroxyacetyl)piperidin-4-yl)oxy)-5-(4-((1-(2-hydroxyethyl)-1H-pyrazol-4-yl)amino)-1,3,5-triazin-2-yl)benzonitrile]	3	601	3
COc1cc(Nc2ncnc(-c3ccc(O[C@H]4CCN(C(=O)[C@@H](O)CO)C[C@H]4F)c(C#N)c3)n2)cnc1N1CCN(C2COC2)CC1 [Example 511, 2-(((3R,4S)-1-((S)-2,3-dihydroxypropanoyl)-3-fluoropiperidin-4-yl)oxy)-5-(4-((5-methoxy-6-(4-(oxetan-3-yl)piperazin-1-yl)pyridin-3-yl)amino)-1,3,5-triazin-2-yl)benzonitrile]	2	≥ 1000	4
CC(C)(O)Cn1cc(Nc2ncnc(-c3ccc(O[C@H]4CCN(C(=O)[C@@H](O)CO)C[C@H]4F)c(C#N)c3)n2)cn1 [Example 512, 2-(((3R,4S)-1-((S)-2,3-dihydroxypropanoyl)-3-fluoropiperidin-4-yl)oxy)-5-(4-((1-(2-hydroxy-2-methylpropyl)-1H-pyrazol-4-yl)amino)-1,3,5-triazin-2-yl)benzonitrile]	2	≥ 1000	2
C[C@H](O)C(=O)N1CC[C@H](Oc2ccc(-c3ncnc(Nc4cnc5c(c4)OCCN5)n3)cc2C#N)[C@H](F)C1 [Example 516, 5-(4-((3,4-dihydro-2H-pyrido[3,2-b][1,4]oxazin-7-yl)amino)-1,3,5-triazin-2-yl)-2-(((3R,4S)-3-fluoro-1-((S)-2-hydroxypropanoyl)piperidin-4-yl)oxy)benzonitrile]	10	≥ 1000	6
Cc1cc(-c2ncnc(Nc3ccc(N4CCN(C5COC5)CC4)cc3)n2)cc(C#N)c1O[C@H]1CCN(C(=O)[C@H](C)O)C[C@H]1F [Example 521, 2-(((3R,4S)-3-fluoro-1-((S)-2-hydroxypropanoyl)piperidin-4-yl)oxy)-3-methyl-5-(4-((4-(4-(oxetan-3-yl)piperazin-1-yl)phenyl)amino)-1,3,5-triazin-2-yl)benzonitrile]	39	≥ 1000	16
Cc1cc(-c2ncnc(Nc3ccc(N4CCN(C5COC5)CC4)cc3)n2)cc(C#N)c1O[C@H]1CCN(C(=O)CO)C[C@H]1F [Example 522, 2-(((3R,4S)-3-fluoro-1-(2-hydroxyacetyl)piperidin-4-yl)oxy)-3-methyl-5-(4-((4-(4-(oxetan-3-yl)piperazin-1-yl)phenyl)amino)-1,3,5-triazin-2-yl)benzonitrile]	28	≥ 1000	14

More lines, in order of falling IC50 (IKKε), values ahead:

IC50 (IKKε) [nM]	IC50 (hJAK2) [nM]	IC50 (TBK1) [nM]	SMILES
2	432	3	N#Cc1cc(-c2ncnc(Nc3cn[nH]c3)n2)ccc1O[C@H]1CCN(C(=O)CO)C[C@H]1F [Example 507, 5-(4-((1H-pyrazol-4-yl)amino)-1,3,5-triazin-2-yl)-2-(((3R,4S)-3-fluoro-1-(2-hydroxyacetyl)piperidin-4-yl)oxy)benzonitrile]
2	≥ 1000	4	N#Cc1cc(-c2ncnc(Nc3ccc(N4CCN(C5COC5)CC4)nc3)n2)ccc1O[C@H]1CCN(C(=O)[C@@H](O)CO)C[C@H]1F [Example 510, 2-(((3R,4S)-1-((S)-2,3-dihydroxypropanoyl)-3-fluoropiperidin-4-yl)oxy)-5-(4-((6-(4-(oxetan-3-yl)piperazin-1-yl)pyridin-3-yl)amino)-1,3,5-triazin-2-yl)benzonitrile]
1	782	2	Cc1cc(Nc2ncnc(-c3ccc(O[C@H]4CCN(C(=O)[C@H](C)O)C[C@H]4F)c(C#N)c3)n2)ccc1C1CCN(C=O)CC1 [Example 493, 2-(((3R,4S)-3-fluoro-1-((S)-2-hydroxypropanoyl)piperidin-4-yl)oxy)-5-(4-((4-(1-formylpiperidin-4-yl)-3-methylphenyl)amino)-1,3,5-triazin-2-yl)benzonitrile]
1	79	2	COc1cc(Nc2ncnc(-c3ccc(O[C@H]4CCN(C(=O)[C@H](C)O)C[C@H]4F)c(C#N)c3)n2)ccc1N1CCN(C)C[C@@H]1C [Example 499, 5-(4-((4-((S)-2,4-dimethylpiperazin-1-yl)-3-methoxyphenyl)amino)-1,3,5-triazin-2-yl)-2-(((3R,4S)-3-fluoro-1-((S)-2-hydroxypropanoyl)piperidin-4-yl)oxy)benzonitrile]
1	699	3	N#Cc1cc(-c2ncnc(Nc3ccc(C4CCN(C5COC5)CC4)cc3)n2)ccc1O[C@H]1CCN(C(=O)[C@@H](O)CO)C[C@H]1F [Example 509, 2-(((3R,4S)-1-((S)-2,3-dihydroxypropanoyl)-3-fluoropiperidin-4-yl)oxy)-5-(4-((4-(1-(oxetan-3-yl)piperidin-4-yl)phenyl)amino)-1,3,5-triazin-2-yl)benzonitrile]
1	517	2	Cc1cc(Nc2ncnc(-c3ccc(O[C@H]4CCN(C(=O)[C@@H](O)CO)C[C@H]4F)c(C#N)c3)n2)cnc1N1CCN(C2COC2)CC1 [Example 513, 2-(((3R,4S)-1-((S)-2,3-dihydroxypropanoyl)-3-fluoropiperidin-4-yl)oxy)-5-(4-((5-methyl-6-(4-(oxetan-3-yl)piperazin-1-yl)pyridin-3-yl)amino)-1,3,5-triazin-2-yl)benzonitrile]
1	828	2	C[C@H](O)C(=O)N1CC[C@H](Oc2ccc(-c3ncnc(Nc4ccc5c(c4)NCCO5)n3)cc2C#N)[C@H](F)C1 [Example 517, 5-(4-((3,4-dihydro-2H-benzo[b][1,4]oxazin-6-yl)amino)-1,3,5-triazin-2-yl)-2-(((3R,4S)-3-fluoro-1-((S)-2-hydroxypropanoyl)piperidin-4-yl)oxy)benzonitrile]
1	184	2	N#Cc1cc(-c2ncnc(Nc3ccc(N4CCN(C5COC5)CC4)cc3)n2)ccc1O[C@H]1CCN(C(=O)[C@@H]2COC(=O)N2)CC1(F)F [Example 519, 2-(((S)-3,3-difluoro-1-((S)-2-oxooxazolidine-4-carbonyl)piperidin-4-yl)oxy)-5-(4-((4-(4-(oxetan-3-yl)piperazin-1-yl)phenyl)amino)-1,3,5-triazin-2-yl)benzonitrile]
1	177	2	N#Cc1cc(-c2ncnc(Nc3ccc(N4CCN(C5COC5)CC4)cc3)n2)ccc1O[C@H]1CCN(C(=O)[C@@H]2CSC(=O)N2)CC1(F)F [Example 520, 2-(((S)-3,3-difluoro-1-((R)-2-oxothiazolidine-4-carbonyl)piperidin-4-yl)oxy)-5-(4-((4-(4-(oxetan-3-yl)piperazin-1-yl)phenyl)amino)-1,3,5-triazin-2-yl)benzonitrile]
